The values below come from patent US8674118B2, “Compounds and methods for the treatment or prevention of flavivirus infections” (priority 2005, dated 2014).

The experiment concerns HCV RNA replication (replicon cell lines Huh-7, 5.2 and ET). Description: Cell-Based Luciferase Reporter HCV RNA Replication Assay. Particulars: Huh-7, 5.2 or ET replicon cells, luciferase counts after 4 days incubation, read-out: IC50. For orientation: A reporter such as luciferase makes a cellular process visible.

Structures are written as SMILES. Where a name gives a salt, the structure may show the parent alone. Read-outs that look alike come from different tables or passages of the source.

In general, IC50 refers to the point on the concentration scale where inhibition reaches its midpoint. With `C[C@H]1CC[C@H](C(=O)N(c2cc(C3=CCCC3)sc2C(=O)O)[C@H]2CC[C@H](O)CC2)CC1` [Compound 16, 5-Cyclopent-1-enyl-3-[(trans-4-hydroxy-cyclohexyl)-(trans-4-methyl-cyclohexanecarbonyl)-amino]-thiophene-2-carboxylic acid], the IC50 (Hepatitis C virus, Huh-7, 96 h) was less than 5 µM.

In the case of `CC1CCC(C(=O)N(c2cc(C3CCC(=O)CC3)sc2C(=O)O)C2CCC(O)CC2)CC1` (stereo not drawn) [Compound 86, 3-[(4-trans-hydroxy-cyclohexyl)-(4-trans-methyl-cyclohexanecarbonyl)-amino]-5-(4-oxo-cyclohexyl)-thiophene-2-carboxylic acid], the IC50 (Hepatitis C virus, Huh-7, 96 h) lay within 5 to 25 µM.

Regarding `CC1CCC(C(=O)N(c2cc(C3=CCCCC3)sc2C(=O)O)C2CCC(n3ccnn3)CC2)CC1` (stereo not drawn) [Compound 105, 5-cyclohex-1-enyl-3-[(trans-4-methyl-cyclohexanecarbonyl)-(trans-4-[1,2,3]triazol-1-cyclohexyl)-amino]-thiophene-2-carboxylic acid], the IC50 was less than 5 µM.

With `CC1CCC(C(=O)N(c2cc(C3=CCCCC3)sc2C(=O)O)C2CCC3(CC2)CN(C)C(=O)N3C)CC1` (stereo not drawn) [Compound 73, 5-cyclohex-1-enyl-3-[cis(1,3-dimethyl-2-oxo-1,3-diaza-spiro[4.5]dec-8-yl)-(trans-4-methyl-cyclohexanecarbonyl)-amino]-thiophene-2-carboxylic acid], the IC50 (Hepatitis C virus, Huh-7, 96 h) was less than 5 µM.

As to `C[C@H]1CC[C@H](C(=O)N(c2cc([C@H]3CC[C@@H](C)CC3)sc2C(=O)O)[C@H]2CC[C@H](O)CC2)CC1` [Compound 78, 3-[(trans-4-hydroxy-cyclohexyl)-(trans-4-methyl-cyclohexanecarbonyl)-amino]-5-(cis-4-methyl-cyclohexyl)-thiophene-2-carboxylic acid], the IC50 (Hepatitis C virus, Huh-7, 96 h) is less than 5 µM.

Turning to `C[C@H]1CC[C@H](C(=O)N(c2cc(C3=CC(O)CCC3)sc2C(=O)O)[C@H]2CC[C@H](OC3CCCCO3)CC2)CC1` (relative stereo) [Compound 55, 5-(3-hydroxy-cyclohex-1-enyl)-3-{(trans-4-methyl-cyclohexanecarbonyl)-[trans-4-(tetrahydro-pyran-2-yloxy)-cyclohexyl]amino}-thiophene-2-carboxylic acid], for the setting “Hepatitis C virus, Huh-7, 96 h”, the IC50 is less than 5 µM.

In the case of `COC1CCC(N(C(=O)C2CCC(C)CC2)c2cc(C3CCC(F)(F)CC3)sc2C(=O)O)CC1` (stereo not drawn) [Compound 122, 5-(4,4-difluoro-cyclohexyl)-3-[(4-trans-methoxy-cyclohexyl)-(4-trans-methyl-cyclohexanecarbonyl)-amino]-thiophene-2-carboxylic acid], the IC50 (Hepatitis C virus, Huh-7, 96 h) was less than 5 µM.

On to `CO[C@H]1CC[C@H](N(c2cc(C3=CCC(C)(C)CC3)sc2C(=O)O)C(=O)[C@H]2CC[C@H](C)CC2)CC1` [Compound 20, 5-(4,4-Dimethyl-cyclohex-1-enyl)-3-[(trans-4-methoxy-cyclohexyl)-(trans-4-methyl-cyclohexanecarbonyl)-amino]-thiophene-2-carboxylic acid], for which the half-inhibitory concentration (IC50) (Hepatitis C virus, Huh-7, 96 h) is less than 5 µM.

`CCO/N=C1/CC=C(c2cc(N(C(=O)C3CCC(C)CC3)C3CCC(O)CC3)c(C(=O)O)s2)CC1` (stereo not drawn) [Compound 27, 5-{4-ethoxyimino-cyclohex-1-enyl}-3-[(4-trans-hydroxy-cyclohexyl)-(4-trans-methyl-cyclohexanecarbonyl)-amino]-thiophene-2-carboxylic acid]: for the setting “Hepatitis C virus, Huh-7, 96 h”, the IC50 is less than 5 µM.

Turning to `C[C@H]1CC[C@H](C(=O)N(c2cc(C3=CCCCC3)sc2C(=O)O)C2CCN(C=O)CC2)CC1` [Compound 98, 5-cyclohex-1-enyl-3-[(1-formyl-piperidin-4-yl)-(trans-4-methyl-cyclohexanecarbonyl)-amino]-thiophene-2-carboxylic acid], for the setting “Hepatitis C virus, Huh-7, 96 h”, the IC50 was less than 5 µM.

With `C[C@H]1CC[C@H](C(=O)N(c2cc(C3=CCC(Oc4ccccc4)CC3)sc2C(=O)O)[C@H]2CC[C@H](O)CC2)CC1` (relative stereo) [Compound 33, 3-[(trans-4-hydroxy-cyclohexyl)-(trans-4-methyl-cyclohexanecarbonyl)-amino]-5-(4-phenoxy-cyclohex-1-enyl)-thiophene-2-carboxylic acid], under “Hepatitis C virus, Huh-7, 96 h”, the IC50 was less than 5 µM.

As to `CC(C)C(=O)N[C@H]1CC[C@@H](N(c2cc(C3=CCCCC3)sc2C(=O)O)C(=O)[C@H]2CC[C@H](C)CC2)CC1` [Compound 133, 5-cyclohex-1-enyl-3-[(cis-4-isobutyrylamino-cyclohexyl)-(trans-4-methyl-cyclohexanecarbonyl)-amino]-thiophene-2-carboxylic acid], for the setting “Hepatitis C virus, Huh-7, 96 h”, the IC50 is less than 5 µM.

For the molecule `CC1CCC(C(=O)N(c2cc(C3=CCCCC3)sc2C(=O)O)C2CCN(c3ccccc3)CC2)CC1` (stereo not drawn) [Compound 127, 5-cyclohex-1-enyl-3-[(trams, 4-methyl-cyclohexanecarbonyl)-(1-phenyl-piperidin-4-yl)-amino]-thiophene-2-carboxylic acid], the IC50 (Hepatitis C virus, Huh-7, 96 h) is less than 5 µM.

Consider `CC1CCC(C(=O)N(c2cc(C3=CCCCC3)sc2C(=O)O)C2CCC3(CC2)CC(=O)N(C)C3)CC1` (stereo not drawn) [Compound 128, 5-cyclohex-1-enyl-3-[(trans-4-methyl-cyclohexanecarbonyl)-trans(2-methyl-3-oxo-2-aza-spiro[4.5]dec-8-yl)-amino]-thiophene-2-carboxylic acid], for which the IC50 is less than 5 µM.

Take `C[C@H]1CC[C@H](C(=O)N(c2cc(C3=CCCCC3)sc2C(=O)O)C2CCC(OC(=O)N3CCOCC3)CC2)CC1` (relative stereo) [Compound 18, Morpholine-4-carboxylic acid 4-[(2-carboxy-5-cyclohex-1-enyl-thiophen-3-yl)-(trans-4-methyl-cyclohexanecarbonyl)-amino]-cyclohexyl ester]: the IC50 (Hepatitis C virus, Huh-7, 96 h) is less than 5 µM.

With `CC1CCC(C(=O)N(c2cc(C3=CCCCC3)sc2C(=O)O)C2CCc3ccccc3C2)CC1` (stereo not drawn) [Compound 66, RS-5-cyclohex-1-enyl-3-[(4-trans-methyl-cyclohexanecarbonyl)-(1,2,3,4-tetrahydro-naphthalen-2-yl)-amino]-thiophene-2-carboxylic acid], the IC50 (Hepatitis C virus, Huh-7, 96 h) is less than 5 µM.

With `C[C@H]1CC[C@H](C(=O)N(c2cc(C3=CCCCC3)sc2C(=O)O)[C@H]2CC[C@H](n3cncn3)CC2)CC1` [Compound 48, 5-cyclohex-1-enyl-3-[(trans-4-methylcyclohexanecarbonyl)-(trans-4-[1,2,4]triazol-1-yl-cyclohexyl)-amino]-thiophene-2-carboxylic acid; hydrochloride], the IC50 (Hepatitis C virus, Huh-7, 96 h) was less than 5 µM.

Regarding `CC1CC=C(c2cc(N(C(=O)[C@H]3CC[C@H](C)CC3)[C@H]3CC[C@H](O)CC3)c(C(=O)O)s2)CC1` (relative stereo) [Compound 4, 3-[(trans-4-Hydroxy-cyclohexyl)-(trans-4-methyl-cyclohexanecarbonyl)-amino]-5-(4-methyl-cyclohex-1-enyl)-thiophene-2-carboxylic acid], the IC50 (Hepatitis C virus, Huh-7, 96 h) is less than 5 µM.

As to `C[C@H]1CC[C@H](C(=O)N(c2cc(C3=CCCCC3)sc2C(=O)O)[C@H]2CC[C@H](C#N)CC2)CC1` [Compound 50, 3-[(trans-4-cyanocyclohexyl)-(trans-4-methyl-cyclohexanecarbonyl)-amino]-5-cyclohex-1-enyl-thiophene-2-carboxylic acid], the IC50 (Hepatitis C virus, Huh-7, 96 h) was less than 5 µM.

On to `CC1CCC(C(=O)N(c2cc(C3=CCCCC3)sc2C(=O)O)C2CCC3C(=O)N(C)C(=O)C3C2)CC1` (stereo not drawn) [Compound 72, RS-5-cyclohex-1-enyl-3-[(trans-methyl-cyclohexanecarbonyl)-(2-methyl-1,3-dioxo-octahydro-isoindol-5-yl)-amino]-thiophene-2-carboxylic acid], for which, where the note is “Hepatitis C virus, Huh-7, 96 h”, the IC50 is less than 5 µM.

`C[C@H]1CC[C@H](C(=O)N(c2cc(C3=CCCC3)sc2C(=O)O)[C@H]2CC[C@H](O)CC2)CC1` [Compound 3, 5-Cyclopent-1-enyl-3-[(trans-4-hydroxy-cyclohexyl)-(trans-4-methyl-cyclohexanecarbonyl)-amino]-thiophene-2-carboxylic acid]: for the setting “Hepatitis C virus, Huh-7, 96 h”, the IC50 was less than 5 µM.

For the molecule `C[C@H]1CC[C@H](C(=O)N(c2cc(C3CCCCCC3)sc2C(=O)O)[C@H]2CC[C@H](O)CC2)CC1` [Compound 6, 5-Cycloheptyl-3-[(trans-4-hydroxy-cyclohexyl)-(trans-4-methyl-cyclohexanecarbonyl)-amino]-thiophene-2-carboxylic acid], under “Hepatitis C virus, Huh-7, 96 h”, the IC50 is less than 5 µM.

Consider `CC1CCC(C(=O)N(c2cc(C3=CCCCC3)sc2C(=O)O)C2CCC3(CC2)CNC(=O)C3)CC1` (stereo not drawn) [Compound 81, 5-cyclohex-1-enyl-3-[(trans-4-methyl-cyclohexanecarbonyl)-trans-(3-oxo-2-aza-spiro[4.5]dec-8-yl)-amino]-thiophene-2-carboxylic acid], for which the IC50 is less than 5 µM.

Consider `COCC(COC)N(c1cc(C2=CCCCC2)sc1C(=O)O)C(=O)[C@H]1CC[C@H](C)CC1` [Compound 111, 5-cyclohex-1-enyl-3-[(2-methoxy-1-methoxymethyl-ethyl)-(trans-4-methyl-cyclohexanecarbonyl)-amino]-thiophene-2-carboxylic acid], for which, for the setting “Hepatitis C virus, Huh-7, 96 h”, the IC50 was less than 5 µM.

On to `CC1(C)CCC(c2cc(N(C(=O)[C@H]3CC[C@H](C)CC3)[C@H]3CC[C@H](O)CC3)c(C(=O)O)s2)CC1` [Compound 64, 5-(4,4-dimethyl-cyclohexyl)-3-[(trans-4-hydroxy-cyclohexyl)-(trans-4-methyl-cyclohexanecarbonyl)-amino]-thiophene-2-carboxylic acid], for which the IC50 (Hepatitis C virus, Huh-7, 96 h) was less than 5 µM.

As for `CC1(C)CC=C(c2cc(N(C(=O)[C@H]3CC[C@H](C)CC3)[C@H]3CC[C@H](n4cncn4)CC3)c(C(=O)O)s2)CC1` [Compound 95, 5-(4,4-dimethyl-cyclohex-1-enyl)-3-[(trans-4-methyl-cyclohexanecarbonyl)-(trans-4-[1,2,4]triazol-1-yl-cyclohexyl)-amino]-thiophene-2-carboxylic acid; hydrochloride], the IC50 (Hepatitis C virus, Huh-7, 96 h) was less than 5 µM.

For `CO[C@H]1CC[C@H](N(c2cc(C3=CCCCC3)sc2C(=O)O)C(=O)[C@H]2CC[C@H](C)CC2)CC1` [Compound 12, 5-Cyclohex-1-enyl-3-[(trans-4-methoxy-cyclohexyl)-(trans-4-methyl-cyclohexanecarbonyl)-amino]-thiophene-2-carboxylic acid], the IC50 (Hepatitis C virus, Huh-7, 96 h) is less than 5 µM.
